# Data as given in patent US7528284B2, “Method for producing xylylenediamine (XDA)” (BASF Aktiengesellschaft, priority 2003, dated 2009).
# Assay: Investigations of solubility of IPN in different solvents
# Type: physicochemical
# Experimental: Investigations of Solubility of IPN in Different Solvents
# At 60° C., the solubility of IPN in mesitylene or pseudocumene is in each case below 10% by weight.
structure (smiles),measurement,setting,value
"N#Cc1cccc(C#N)c1 [IPN, 1,3-dicyanobenzene]",solubility of IPN in NMP,at 60° C.,approx. 26 % by weight
same,solubility of IPN in NMP,at 90° C.,approx. 41 % by weight
same,solubility of IPN in mesitylene,at 60° C.,below 10 % by weight
same,solubility of IPN in mesitylene,at 90° C.,12 % by weight
same,solubility of IPN in pseudocumene,at 60° C.,below 10 % by weight
same,solubility of IPN in pseudocumene,at 90° C.,20 % by weight
